Assay results from PubChem BioAssay (NCI).
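Compound exposure: 48 hours, 5 concentrations, 96-well plates. Abbreviation: GI50, concentration required for 50% inhibition of growth. Definition used: TGI = concentration required for complete inhibition of growth.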

Columns and labels:
Assay in all cases: DTP human tumour cell line panel, 48 h
HCT-116 colon = test system: HCT-116 colon
NCI-H23 lung = test system: NCI-H23 lung
ACHN renal = test system: ACHN renal
MOLT-4 leukemia = test system: MOLT-4 leukemia
SF-295 CNS = test system: SF-295 CNS
HS 578T breast = test system: HS 578T breast
SR leukemia = test system: SR leukemia
RPMI-8226 leukemia = test system: RPMI-8226 leukemia
DU-145 prostate = test system: DU-145 prostate
RXF 393 renal = test system: RXF 393 renal
NCI-H460 lung = test system: NCI-H460 lung
CCRF-CEM leukemia = test system: CCRF-CEM leukemia
M14 melanoma = test system: M14 melanoma
HT29 colon = test system: HT29 colon
MDA-MB-231 breast = test system: MDA-MB-231 breast
NCI/ADR-RES ovarian = test system: NCI/ADR-RES ovarian
MDA-MB-435 = test system: MDA-MB-435
HL-60(TB) leukemia = test system: HL-60(TB) leukemia
MCF7 breast = test system: MCF7 breast
A549 NSCLC = test system: A549 NSCLC
PC-3 prostate = test system: PC-3 prostate
MALME-3M melanoma = test system: MALME-3M melanoma
SNB-75 CNS = test system: SNB-75 CNS
SK-MEL-2 melanoma = test system: SK-MEL-2 melanoma
HOP-62 NSCLC = test system: HOP-62 NSCLC
KM12 colon = test system: KM12 colon
EKVX NSCLC = test system: EKVX NSCLC
SK-MEL-5 melanoma = test system: SK-MEL-5 melanoma
T-47D breast = test system: T-47D breast
IGROV1 ovarian = test system: IGROV1 ovarian
UO-31 renal = test system: UO-31 renal
HOP-92 NSCLC = test system: HOP-92 NSCLC
SK-OV-3 ovarian = test system: SK-OV-3 ovarian
NCI-H226 lung = test system: NCI-H226 lung
OVCAR-3 ovarian = test system: OVCAR-3 ovarian
A498 renal = test system: A498 renal
OVCAR-8 ovarian = test system: OVCAR-8 ovarian
U251 CNS = test system: U251 CNS
UACC-257 melanoma = test system: UACC-257 melanoma
TK-10 renal = test system: TK-10 renal
NCI-H522 lung = test system: NCI-H522 lung
SN12C renal = test system: SN12C renal
OVCAR-4 ovarian = test system: OVCAR-4 ovarian
HCT-15 colon = test system: HCT-15 colon
CAKI-1 renal = test system: CAKI-1 renal
LOX IMVI melanoma = test system: LOX IMVI melanoma
HCC-2998 colon = test system: HCC-2998 colon
SNB-19 CNS = test system: SNB-19 CNS
786-0 renal = test system: 786-0 renal
SK-MEL-28 melanoma = test system: SK-MEL-28 melanoma
SF-268 CNS = test system: SF-268 CNS
SF-539 CNS = test system: SF-539 CNS
OVCAR-5 ovarian = test system: OVCAR-5 ovarian
SW-620 colon = test system: SW-620 colon
BT-549 breast = test system: BT-549 breast
UACC-62 melanoma = test system: UACC-62 melanoma
COLO 205 colon = test system: COLO 205 colon

COc1cc2c3c(n(CCCNC4CCCCC4)c(=O)c2cc1OC)-c1cc2c(cc1C3=O)OCO2 gave a GI50 (HCT-116 colon) of 1.59 µM, a TGI (HCT-116 colon) of 3.03 µM and a GI50 (NCI-H23 lung) of 1.86 µM. The TGI (NCI-H23 lung) was 4.22 µM, the GI50 (ACHN renal) was 8.95 µM and the TGI (ACHN renal) was 33.5 µM. For the same compound, the GI50 (MOLT-4 leukemia) was 0.354 µM, the TGI (MOLT-4 leukemia) was 3.93 µM and the GI50 (SF-295 CNS) was 12.1 µM. It also gave a TGI (SF-295 CNS) greater than 58.1 µM, a GI50 (HS 578T breast) of 49 µM and a TGI (HS 578T breast) greater than 100 µM. The GI50 (SR leukemia) was 0.245 µM, the TGI (SR leukemia) was 4.17 µM and the GI50 (RPMI-8226 leukemia) was 1.82 µM. It also gave a TGI (RPMI-8226 leukemia) of 6.39 µM, a GI50 (DU-145 prostate) of 1.83 µM and a TGI (DU-145 prostate) of 3.74 µM. For the same compound, the GI50 (RXF 393 renal) was 9.22 µM, the TGI (RXF 393 renal) was 37.8 µM and the GI50 (NCI-H460 lung) was 1.52 µM. The TGI (NCI-H460 lung) was 3.24 µM, the GI50 (CCRF-CEM leukemia) was 0.319 µM and the TGI (CCRF-CEM leukemia) was 13.7 µM. It also gave a GI50 (M14 melanoma) of 18.3 µM, a TGI (M14 melanoma) of 39.2 µM and a GI50 (HT29 colon) of 1.82 µM. It also gave a TGI (HT29 colon) of 3.66 µM, a GI50 (MDA-MB-231 breast) of 2.18 µM and a TGI (MDA-MB-231 breast) of 5.13 µM. The GI50 (NCI/ADR-RES ovarian) was 1.78 µM, the TGI (NCI/ADR-RES ovarian) was 4.45 µM and the GI50 (MDA-MB-435) was 14.7 µM. For the same compound, the TGI (MDA-MB-435) was 34.3 µM, the GI50 (HL-60(TB) leukemia) was 1.62 µM and the TGI (HL-60(TB) leukemia) was 4.87 µM. It also gave a GI50 (MCF7 breast) of 1.2 µM, a TGI (MCF7 breast) of 2.84 µM and a GI50 (A549 NSCLC) of 5.87 µM. For the same compound, the TGI (A549 NSCLC) was 18.5 µM, the GI50 (PC-3 prostate) was 16.8 µM and the TGI (PC-3 prostate) was 85.6 µM. It also gave a GI50 (MALME-3M melanoma) of 14.4 µM, a TGI (MALME-3M melanoma) of 29.1 µM and a GI50 (SNB-75 CNS) of 11.9 µM. For the same compound, the TGI (SNB-75 CNS) was 25.5 µM, the GI50 (SK-MEL-2 melanoma) was greater than 100 µM and the TGI (SK-MEL-2 melanoma) was greater than 100 µM. For the same compound, the GI50 (HOP-62 NSCLC) was 15.8 µM, the TGI (HOP-62 NSCLC) was 43.3 µM and the GI50 (KM12 colon) was 11.7 µM. It also gave a TGI (KM12 colon) greater than 59 µM, a GI50 (EKVX NSCLC) of 14.3 µM and a TGI (EKVX NSCLC) greater than 63.8 µM. For the same compound, the GI50 (SK-MEL-5 melanoma) was 18.4 µM, the TGI (SK-MEL-5 melanoma) was 36.3 µM and the GI50 (T-47D breast) was 20.8 µM. It also gave a TGI (T-47D breast) of 61.4 µM, a GI50 (IGROV1 ovarian) of 15.4 µM and a TGI (IGROV1 ovarian) greater than 100 µM. The GI50 (UO-31 renal) was 13.3 µM, the TGI (UO-31 renal) was 27.3 µM and the GI50 (HOP-92 NSCLC) was 15.5 µM. The TGI (HOP-92 NSCLC) was 42 µM, the GI50 (SK-OV-3 ovarian) was 20.8 µM and the TGI (SK-OV-3 ovarian) was 51.1 µM. The GI50 (NCI-H226 lung) was 24.8 µM, the TGI (NCI-H226 lung) was greater than 67 µM and the GI50 (OVCAR-3 ovarian) was 10.8 µM. For the same compound, the TGI (OVCAR-3 ovarian) was 33 µM, the GI50 (A498 renal) was 20.8 µM and the TGI (A498 renal) was 49.1 µM. It also gave a GI50 (OVCAR-8 ovarian) of 18 µM, a TGI (OVCAR-8 ovarian) of 36.6 µM and a GI50 (U251 CNS) of 7.85 µM. For the same compound, the TGI (U251 CNS) was 51.6 µM, the GI50 (UACC-257 melanoma) was 18.9 µM and the TGI (UACC-257 melanoma) was 43 µM. For the same compound, the GI50 (TK-10 renal) was 20.9 µM, the TGI (TK-10 renal) was 36.7 µM and the GI50 (NCI-H522 lung) was 10.8 µM. The TGI (NCI-H522 lung) was 59.2 µM, the GI50 (SN12C renal) was 18.2 µM and the TGI (SN12C renal) was greater than 57.8 µM. For the same compound, the GI50 (OVCAR-4 ovarian) was 10.9 µM, the TGI (OVCAR-4 ovarian) was 23.9 µM and the GI50 (HCT-15 colon) was 1.62 µM. For the same compound, the TGI (HCT-15 colon) was 3.21 µM, the GI50 (CAKI-1 renal) was 7.69 µM and the TGI (CAKI-1 renal) was 22.9 µM. The GI50 (LOX IMVI melanoma) was 1.43 µM, the TGI (LOX IMVI melanoma) was 3 µM and the GI50 (HCC-2998 colon) was 3.69 µM. The TGI (HCC-2998 colon) was 8.34 µM, the GI50 (SNB-19 CNS) was 26.2 µM and the TGI (SNB-19 CNS) was greater than 76.5 µM. For the same compound, the GI50 (786-0 renal) was 1.73 µM, the TGI (786-0 renal) was 3.19 µM and the GI50 (SK-MEL-28 melanoma) was 22.7 µM. It also gave a TGI (SK-MEL-28 melanoma) greater than 55.7 µM, a GI50 (SF-268 CNS) of 9.87 µM and a TGI (SF-268 CNS) greater than 69 µM. It also gave a GI50 (SF-539 CNS) of 4.57 µM, a TGI (SF-539 CNS) of 8.91 µM and a GI50 (OVCAR-5 ovarian) of 20.3 µM. For the same compound, the TGI (OVCAR-5 ovarian) was 48.4 µM, the GI50 (SW-620 colon) was 1.44 µM and the TGI (SW-620 colon) was 4.18 µM. The GI50 (BT-549 breast) was 15.2 µM, the TGI (BT-549 breast) was 31.9 µM and the GI50 (UACC-62 melanoma) was 27 µM. For the same compound, the TGI (UACC-62 melanoma) was greater than 66.5 µM, the GI50 (COLO 205 colon) was 8 µM and the TGI (COLO 205 colon) was greater than 54 µM.
